The source of these data is patent US4816444A, “Cell growth inhibitory substance” (priority 1987, dated 1989).

Test [1] relates to B16 Melanoma. The following applies: 11 μg/kg; cited from earlier work.
Test [2] deals with Human Melanoma Xenograph (LOX). The experiment in a line: NCI human melanoma xenograph to nude mouse (LOX). The class given is in vivo. The settings on record: 52 μg/kg.
Test [3] deals with P388 lymphocytic leukemia. Description: NCI murine P388 lymphocytic leukemia (PS system), in vivo. The protocol:
Unit dosage forms of dolastatin 10 prepared according to selected compositions described in Example 1 were screened utilizing Protocol 1,200 described in Cancer Chemotherapy Reports, parts 3, Vol. 3, No. 2, September 1972, pp 9 et seq for lymphocytic leukemia P388. Dolastatin 10 provided a 69-102% life extension at 1-4 μg/Kg host body weight against the murine P388 lymphocytic leukemia.

Test [4] has as its system L1210 Lymphocytic Leukemia. Description: L1210 lymphocytic leukemia, murine in vivo system.
The subject of test [5] is M5076 Ovary Sarcoma. The experiment in a line: M5076 ovary sarcoma, murine in vivo system.
For test [6], the system named is Human Melanoma Xenograph (LOX). The experiment in a line: NCI human melanoma xenograph to nude mouse (LOX). The format is in vivo. The protocol: Unit dosage forms of dolastatin 10 were prepared according to Example 1 and were screened using accepted protocols of the National Cancer Institute. The preparation obtained a 17-67% cure rate at 3.25-26 μg/kg host body weight against NCI murine human melanoma xenograph.

In test [7] the test system is Human Mammary Xenograph MX-1. The experiment in a line: Human mammary xenograph to nude mouse MX-1 (life extension). The class given is in vivo.
Test [8] has as its system B16 Melanoma. Description: NCI murine B16 melanoma, in vivo. The protocol:
A unit dosage form of dolastatin 10, prepared according to Example 1, was challenged with B-16 murine melanoma and obtained a 42% to 138% life extension at 1.44 to 11.1 μg/Kg using the National Cancer Institute accepted protocol.

In test [9] the test system is P388 in vitro cell line. The experiment in a line: P388 in vitro cell line growth inhibition. The class given is cell-based, murine.
In test [10] the test system is MX-1. The experiment in a line: MX-1 tumor regression. The format is in vivo, human.

≈ marks a conversion by molar mass, not a printed value.

Regarding dolastatin 1, the cure rate in test [1] is recorded as 33%.

Take `CC[C@H](C)[C@@H]([C@@H](CC(=O)N1CCC[C@H]1[C@H](OC)[C@@H](C)C(=O)N[C@@H](Cc1ccccc1)c1nccs1)OC)N(C)C(=O)[C@@H](NC(=O)[C@H](C(C)C)N(C)C)C(C)C` [Dolastatin 10]: the T/C entry in test [2] is recorded as “toxic”; in [3] (2 μg/kg) it was 199; in test [3] (4 μg/kg), 202; in [3] (8 μg/kg) it was 161; in [3] (13.5 μg/kg) it was 173; in test [3] (08-27 μg/kg), “toxic”. The T/C is 120 in test [4] (1.63 μg/kg); 139 in [4] (3.25 μg/kg); 135 in test [4] (6.5 μg/kg); 152 in [4] (13 μg/kg); “toxic” in [4] (26 μg/kg); 151 in [5] (3.25 μg/kg). Moreover, the T/C in [5] (6.5 μg/kg) is 142; in [5] (13 μg/kg), 166; in test [5] (24 μg/kg), “toxic”; in test [5] (26 μg/kg), “toxic”; in test [6] (3.25 μg/kg) it was 170; in test [6] (6.5 μg/kg) it was 206. Moreover, the T/C in test [6] (13 μg/kg) was found to be 301; in [6] (26 μg/kg), 301; in test [8] (3.4 μg/kg), 171; in test [8] (4.0 μg/kg), 205; in test [8] (6.67 μg/kg), 182; in test [8] (11.11 μg/kg) it was 238. In addition, the cures stood at 66.6% in test [2], 16.6% in test [6] (6.5 μg/kg), 33.3% in [6] (13 μg/kg) and 50% in [6] (26 μg/kg). The “curative response / cure rate” value in test [6] (3.25-26 μg/kg) was 17-67%. For the same compound, the “T/C (life extension)” value is on record as 178 in test [7] (6.25 μg/kg), 137 in [7] (13 μg/kg), “toxic” in test [7] (26 μg/kg) and “toxic” in test [7] (52 μg/kg). The compound also registered an ED50 in test [9] of 0.046 ng/mL (≈ 0.0586 nM). For the same compound, the “MX-1 Tumor Regression, T/C” value in [10] (6.25 μg/kg) came out at 69; in test [10] (13 μg/kg) it was 61; in [10] (26 μg/kg), 50; in test [10] (52 μg/kg), 14.
